Assay results taken from paper PMC3898987 (Bioorganic & Medicinal Chemistry, 2013).
Where a chain is given by its changes, count along the chain named.

How the values were obtained:
[1] = biological target: T1, 5-HT3AB receptor, 5-HT3B subunit W90C (Homo sapiens, UniProt O95264+P46098, W83C); assay: cell-based
T1 sequence (P46098 24-478): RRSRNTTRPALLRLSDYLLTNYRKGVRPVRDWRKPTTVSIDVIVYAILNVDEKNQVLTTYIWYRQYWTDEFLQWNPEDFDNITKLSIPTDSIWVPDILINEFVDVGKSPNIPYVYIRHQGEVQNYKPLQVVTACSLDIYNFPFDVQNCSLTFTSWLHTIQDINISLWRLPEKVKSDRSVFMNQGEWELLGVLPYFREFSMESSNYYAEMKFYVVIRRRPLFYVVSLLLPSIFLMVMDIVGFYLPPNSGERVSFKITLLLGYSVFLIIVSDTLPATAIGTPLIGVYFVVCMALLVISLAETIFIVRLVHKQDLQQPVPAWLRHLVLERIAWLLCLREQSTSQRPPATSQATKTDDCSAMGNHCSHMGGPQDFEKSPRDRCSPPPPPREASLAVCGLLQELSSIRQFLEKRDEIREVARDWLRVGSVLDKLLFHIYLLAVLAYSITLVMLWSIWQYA
T1 sequence (O95264 22-441 W83C): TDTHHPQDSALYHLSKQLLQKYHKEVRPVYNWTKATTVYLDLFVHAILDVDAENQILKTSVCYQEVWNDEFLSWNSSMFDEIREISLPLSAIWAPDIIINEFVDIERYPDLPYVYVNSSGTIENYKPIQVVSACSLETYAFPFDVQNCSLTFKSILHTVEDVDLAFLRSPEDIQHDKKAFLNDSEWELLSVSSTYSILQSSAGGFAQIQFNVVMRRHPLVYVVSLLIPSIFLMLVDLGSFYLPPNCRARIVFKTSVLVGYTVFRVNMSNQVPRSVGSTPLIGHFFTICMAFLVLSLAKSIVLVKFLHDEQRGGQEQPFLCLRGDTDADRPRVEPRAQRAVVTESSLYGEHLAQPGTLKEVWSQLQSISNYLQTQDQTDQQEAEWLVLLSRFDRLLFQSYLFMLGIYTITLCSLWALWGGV
Procedure: (§1) Human embryonic kidney (HEK) 293 cells were cultured on 90 mm tissue culture plates at 37 °C and 7% CO2 in a humidified atmosphere. They were grown in DMEM:F12 (Dulbecco’s Modified Eagle’s Medium/Nutrient Mix F12 (1:1)) with GlutaMAX I™ containing 10% fetal calf serum and passaged when confluent. […] For FlexStation assays, transfected cells were plated on 96-well plates and incubated 1–2 days before assay.
(§2) Fluorometric studies were undertaken using a FlexStation® (Molecular Devices, Sunnyvale, CA, USA) as previously described.[11]
(§3) Fluorescence was measured every 2 s for 200 s. […] Concentration–response and inhibition curves were obtained for each mutant, and the fluorescence values were normalized to the maximal response.

WT 5-HT3A receptor = biological target: T2, WT 5-HT3A receptor (Homo sapiens, UniProt P46098); assay: radioligand saturation binding, transfected HEK293 membranes; details: [3H]-palonosetron saturation, 4 °C, 24 h
T2 sequence (P46098 24-478): T1 sequence (P46098 24-478)
Procedure: (§4) Human embryonic kidney (HEK) 293 cells were cultured on 90 mm tissue culture plates at 37 °C and 7% CO2 in a humidified atmosphere. They were grown in DMEM:F12 (Dulbecco’s Modified Eagle’s Medium/Nutrient Mix F12 (1:1)) with GlutaMAX I™ containing 10% fetal calf serum and passaged when confluent. For radioligand binding studies, cells in 90 mm dishes were transfected at 60–70% confluency using polyethyleneimine and incubated for 3–4 days before use. For FlexStation assays, transfected cells were plated on 96-well plates and incubated 1–2 days before assay. […]
(§5) Eight-point binding assays were performed to produce saturation binding curves. […] Radioactive counts were measured using a Beckman LS6000SC liquid scintillation counter (Fullerton, California, USA).
(§6) Data were analyzed by iterative curve fitting using GraphPad Prism v5 (San Diego, CA) according to the following equation: B=Bmax[L]^n/kdn+[L]^n where B is the amount of bound radioligand, Bmax is the maximum specific binding at equilibrium, [L] is the concentration of radioligand, Kd is the equilibrium dissociation constant of the radioligand, and n is the Hill coefficient.

5-HT3A receptor Y73A = biological target: T3, 5-HT3A receptor Y73A (Homo sapiens, UniProt P46098, Y68A); assay: as above; details: [3H]-palonosetron saturation, 5-HT3A Y73A, 4 °C, 24 h
T3 sequence (P46098 24-478 Y68A): T1 sequence (P46098 24-478) with Y45A
Procedure: as §4, §5, §6

5-HT3A receptor W183C = biological target: T4, 5-HT3A receptor W183C (Homo sapiens, UniProt P46098, W178C); assay: as above; details: [3H]-palonosetron saturation, 5-HT3A W183C, 4 °C, 24 h, NB = no binding
T4 sequence (P46098 24-478 W178C): T1 sequence (P46098 24-478) with W155C
Procedure: as §4, §5, §6

[2] = biological target: T5, 5-HT3AB receptor, 5-HT3B subunit H73A (Homo sapiens, UniProt O95264+P46098, H66A); assay: FlexStation membrane potential dye functional assay, HEK293 cells; details: 5-HT concentration-response, 5-HT3AB with 5-HT3B H73A
T5 sequence (P46098 24-478): T1 sequence (P46098 24-478)
T5 sequence (O95264 22-441 H66A): T1 sequence (O95264 22-441 W83C) with H45A, C62W
Procedure: as §1, §2, §3

[3] = biological target: T1, 5-HT3AB receptor, 5-HT3B subunit W90C; assay: as above; details: 5-HT concentration-response, 5-HT3AB with 5-HT3B W90C
Procedure: as §1, §2, §3

| Structure (SMILES) | IC50 [1] | Kd (WT 5-HT3A receptor) | Kd (5-HT3A receptor Y73A) | Kd (5-HT3A receptor W183C) | Kd (5-HT3A receptor W183C; listed as [^3H]palonosetron) | Hill Coefficient [2] | Hill Coefficient [3] |
| --- | --- | --- | --- | --- | --- | --- | --- |
| O=C1c2cccc3c2[C@H](CCC3)CN1[C@@H]1CN2CCC1CC2 [Palonosetron] | 0.37 ± 0.1 nM | 0.32 ± 0.07 nM | 0.87 ± 0.04 nM | > 2 nM | no saturable, specific binding | – | – |
| NCCc1c[nH]c2ccc(O)cc12 [5-HT, serotonin] | – | – | – | – | – | 1.6 ± 0.2 | 2.0 ± 0.4 |
